In ChEMBL document CHEMBL1125069, “Synthesis and antitumor activity of 2-beta-D-ribofuranosyloxazole-4-carboxamide (oxazofurin)” (J Med Chem, 1990):
pIC50: −log10 of the molar value.

Tests used:
[1] = system: B16; test: In vitro inhibitory activity against B16 murine melanoma cells; b = inactive until a maximum tested concentration of […]; type: functional, cell-based, Mus musculus
[2] = system: HL-60; test: In vitro inhibitory activity against HL-60 human promyelocytic leukemia cells; b = inactive until a maximum tested concentration of […]; type: functional, cell-based
[3] = system: L1210; test: In vitro inhibitory activity against L1210 murine lymphocytic leukemia cells; b = inactive until a maximum tested concentration of […]; type: functional, cell-based, Mus musculus
[4] = system: P388; test: In vitro inhibitory activity against P388 murine lymphocytic leukemia cells; b = inactive until a maximum tested concentration of 2.5(10e-4) M
[5] = system: B16; test: In vitro inhibitory activity against B16 murine melanoma cells; type: functional, cell-based; settings: Mus musculus
[6] = system: HL-60; test: In vitro inhibitory activity against HL-60 human promyelocytic leukemia cells; type: functional, cell-based
[7] = system: L1210; test: In vitro inhibitory activity against L1210 murine lymphocytic leukemia cells; type: functional, cell-based; settings: Mus musculus
[8] = system: P388; test: In vitro inhibitory activity against P388 murine lymphocytic leukemia cells; type: functional, cell-based; settings: Mus musculus
[9] = system: HL-60; test: In vitro inhibitory activity against HL-60 human promyelocytic leukemia cells until a maximum concentration of 4*(10e-3) M; a = inactive until a maximum tested concentration of 4*(10e-3) M; type: functional, cell-based
[10] = system: L1210; test: In vitro inhibitory activity against L1210 murine lymphocytic leukemia cells; a = inactive until a maximum tested concentration of 4*(10e-3) M; type: functional, cell-based, Mus musculus
[11] = system: P388; test: In vitro inhibitory activity against P388 murine lymphocytic leukemia cells; a = inactive until a maximum tested concentration of 4*(10e-3) M; type: functional, cell-based, Mus musculus

Row | SMILES | IC50 [1] | IC50 [2] | IC50 [3] | IC50 [4] | pIC50 [5] | pIC50 [6] | pIC50 [7] | pIC50 [8] | IC50 [9] | IC50 [10] | IC50 [11]
1 | NC(=O)c1coc(-c2ccc(CO)o2)n1 | Inactive until max test conc 2.5x10^-4M | Inactive until max test conc 2.5x10^-4M | Inactive until max test conc 2.5x10^-4M | Inactive until max test conc 2.5x10^-4M |  |  |  |  |  |  | 
2 | NC(=O)c1nc(-c2ccc(CO)o2)oc1N | Inactive until max test conc 2.5x10^-4M | Inactive until max test conc 2.5x10^-4M | Inactive until max test conc 2.5x10^-4M | Inactive until max test conc 2.5x10^-4M |  |  |  |  |  |  | 
3 | NC(=O)c1csc([C@@H]2O[C@H](CO)[C@@H](O)[C@H]2O)n1 [TIAZOFURIN] |  |  |  |  | 4.79 | 5.21 | 5.21 | 4.78 |  |  | 
4 | NC(=O)c1coc([C@@H]2O[C@H](CO)[C@@H](O)[C@H]2O)n1 |  |  |  |  | 2.52 |  |  |  | Inactive until max test conc 4x10^-3M | Inactive until max test conc 4x10^-3M | Inactive until max test conc 4x10^-3M
